Source: paper PMC9323911, “Comparative Metabolomics Study of the Impact of Articaine and Lidocaine on the Metabolism of SH-SY5Y Neuronal Cells” (Metabolites, 2022)
Counter-ions that a name gives are not always drawn. Like-named read-outs stand apart in the source and are kept apart here.

How the values were obtained:
[1] = system: SH-SY5Y cells; assay: 1H NMR metabolic profiling of cell aqueous extracts; assay type: cell-based, human
Experimental: (§1) Afterward, the medium was collected and the dishes washed with cold PBS, immediately before the solvent extraction procedure described below. Unexposed cells were used as controls. Each assay comprised duplicates of each condition and three independent assays were performed, giving a total of 6 replicates per condition.
(§2) The culture medium was collected from each plate (including cell-free medium incubated under the same conditions) in conical tubes and centrifuged at 1000× g for 10 min. Furthermore, 300 µL of the supernatant were collected for protein precipitation, as described by Kostidis et al.. Briefly, 600 µL of 100% methanol (v/v) at −80 °C were added to the collected supernatant ([…]). […] The supernatant was transferred to another tube and vacuum dried (SpeedVac, Eppendorf, Hamburg, Germany). For extracting cellular metabolites, a biphasic extraction protocol (methanol:chloroform:water; 1:1:0.7) was used as previously described. The resulting polar extracts were dried under vacuum in a Speedvac concentrator, and the lipophilic extracts were dried under a nitrogen flow. All extracts were stored at −80 °C prior to NMR analysis.
(§3) For NMR analysis, dried aqueous and lipid extracts were dissolved, respectively, in 600 μL of deuterated phosphate buffer (PBS 100 mM, pH 7.4) containing 0.1 mM 3-(trimethylsilyl) propionic acid (TSP-d4), and 600 μL of deuterated chloroform containing 0.03% tetramethylsilane (TMS). […] Two-dimensional NMR spectra, namely, ^1H-^1H TOCSY, J-resolved and ^1H-^13C HSQC spectra, were also recorded for selected samples to aid metabolite identification. Signal assignment was based on matching 1D and 2D spectral information to reference spectra available in Chenomx 9.0 (Edmonton, AB, Canada), BBIOREFCODE-2–0–0 (Bruker Biospin, Rheinstetten, Germany) and HMDB.
Principal Component Analysis (PCA) and Partial Least Squares-Discriminant Analysis (PLS-DA) were applied and the results were visualized through factorial co-ordinates (‘scores’) and factorial contributions (‘loadings’) colored according to variable importance to the projection (VIP). For PLS-DA models, Q^2 and R^2 values, respectively reflecting predictive capability and explained variance, obtained from sevenfold internal cross validation, were used to assess the robustness of group discrimination.
(§4) To provide a quantitative measurement of metabolic variations, spectral integration and total area normalization of selected signals (vide Supplementary Table S1) were carried out in Amix-Viewer 3.9.15 (Bruker Biospin, Rheinstetten, Germany). For each metabolite, the percentage of variation (or fold change) in exposed samples was calculated relative to respective controls, along with the effect size (ES) and statistical significance (p-value). The variations with larger magnitude (|ES| > 0.8) were expressed in a heatmap.

[2] = system: SH-SY5Y cells; assay: 1H NMR metabolic profiling of culture medium (consumption/excretion); assay type: cell-based, human; details: vs control
Experimental: as §1, §2, §3, §4

[3] = system: SH-SY5Y human neuroblastoma cells; assay: resazurin cell viability assay; assay type: cell-based; details: for IC50: Homo sapiens, SH-SY5Y, read-out: IC50 (cell viability)
Experimental: Undifferentiated SH-SY5Y human neuroblastoma cells (ATCC® CRL-2266) were cultured in DMEM:F12 medium supplemented with 10% FBS and 1% antibiotic (100 IU/mLof penicillin and 100 μg/mL of streptomycin sulfate). Cells were grown in 75 cm^2 bottles and incubated at 37 °C under a humidified atmosphere with 5% CO2 for 48 h, until reaching semiconfluency. All experiments were performed on cells between passages 4 to 8.
To assess cell viability, the resazurin test was used. This assay evaluates the ability of viable cells to reduce resazurin (blue color) to a fluorescent, pink-colored compound, resorufin. Briefly, the cells were plated in a 96-well plate 24 h before treatment, at a density of 4 × 10^4 cells/mL. […] Each LA was solubilized in complete DMEM:F12 medium. Subsequently, the medium was removed, the wells were washed with 5 mM PBS and the cells were incubated with 10% resazurin for 4 h. At the end of this period, the absorbance was measured at 570 nm (λ1) and at 600 nm (λ2) (Multiskan™ FC Microplate Photometer, Thermofisher). The experiment was performed in triplicate and the differences between the two wavelengths (λ1–λ2) were calculated. The results were expressed in % of cell viability in relation to control and analyzed in GraphPad Prism® 6.0.

## CCN(CC)CC(=O)Nc1c(C)cccc1C [LDC, lidocaine hydrochloride]
[1]; IC10, 24 h, aqueous extract
  2-Ketovaline, variation in relation to control: 0.0%
  2-Oxoisoleucine, variation in relation to control: 0.0%
  ATP + ADP, variation in relation to control: -10.4%
  Alanine, variation in relation to control: 0.0%
  Asparagine, variation in relation to control: -18.9%
  Aspartate, variation in relation to control: -12.9%
  Creatine, variation in relation to control: 24.9%
  Cystathionine, variation in relation to control: 12.1%
  Formate, variation in relation to control: 17.0%
  Glutamate, variation in relation to control: -16.3%
  Glutamine, variation in relation to control: -22.0%
  Glycerophosphocholine, variation in relation to control: -11.7%
  Glycine, variation in relation to control: 16.6%
  Histidine, variation in relation to control: 11.8%
  Isobutyrate, variation in relation to control: -14.4%
  Isoleucine, variation in relation to control: 18.2%
  Lactate, variation in relation to control: 0.0%
  Leucine, variation in relation to control: 33.4%
  NAD+, variation in relation to control: 0.0%
  Panthothenic, variation in relation to control: 11.9%
  Phenylalanine, variation in relation to control: 22.7%
  Phosphocholine, variation in relation to control: 14.1%
  Phosphocreatine, variation in relation to control: -16.1%
  Proline, variation in relation to control: -15.8%
  UDP-GlcNAc, variation in relation to control: -10.8%
  Valine, variation in relation to control: 15.5%
  beta-Alanine, variation in relation to control: -10.0%
  myo-Inositol, variation in relation to control: -16.9%
[1]; IC50, 24 h, aqueous extract
  2-Ketovaline, variation in relation to control: 16.5%
  2-Oxoisoleucine, variation in relation to control: 21.6%
  ATP + ADP, variation in relation to control: -23.0%
  Alanine, variation in relation to control: 17.1%
  Asparagine, variation in relation to control: 27.8%
  Aspartate, variation in relation to control: 12.1%
  Creatine, variation in relation to control: 17.6%
  Cystathionine, variation in relation to control: -28.3%
  Formate, variation in relation to control: 58.8%
  Glutamate, variation in relation to control: 0.0%
  Glutamine, variation in relation to control: 43.0%
  Glycerophosphocholine, variation in relation to control: -33.4%
  Glycine, variation in relation to control: 48.8%
  Histidine, variation in relation to control: 22.5%
  Isoleucine, variation in relation to control: 33.4%
  Lactate, variation in relation to control: -12.4%
  Leucine, variation in relation to control: 54.2%
  NAD+, variation in relation to control: 16.7%
  Panthothenic, variation in relation to control: 14.7%
  Phenylalanine, variation in relation to control: 36.2%
  Phosphocholine, variation in relation to control: 23.7%
  Phosphocreatine, variation in relation to control: -42.3%
  Proline, variation in relation to control: -38.0%
  UDP-GlcNAc, variation in relation to control: -38.7%
  Valine, variation in relation to control: 33.9%
  beta-Alanine, variation in relation to control: -72.1%
  myo-Inositol, variation in relation to control: -50.6%
[1]; IC50, 24 h, vs control
  intracellular glutamate level (in words): not altered
  intracellular phosphocholine level (in words): increased
[2]; IC10, 24 h
  pyruvate consumption: increased significantly
[2]; IC50, 24 h
  pyruvate consumption: no difference to controls
[3]; 24 h exposure
  IC10 (concentration reducing cell viability by 10%): 1.2 mM
[3]; 20 min
  IC50: 7.3 ± 0.3 mM
[3]; 1 h
  IC50: 7.4 ± 0.3 mM
[3]; 4 h
  IC50: 5.7 ± 0.2 mM
[3]; 24 h
  IC50: 3.6 mM
[3]
  IC50: ~7 mM
